According to patent publication US6436963B1 (priority 1998, dated 2002):

Legend:
Format in all cases: in vivo
[1] = system: Erysiphe graminis; experiment: Powdery Mildew of Wheat (ERYSGT), protectant spray test on wheat seedlings; conditions: wheat (cultivar Monon), sprayed to run off at 100 ppm, inoculated after 24 hours
[2] = system: Puccinia recondita; experiment: Brown Rust (PUCCRT), protectant spray test on wheat seedlings; conditions: wheat (cultivar Monon), sprayed to run off at 100 ppm, inoculated after 24 hours
[3] = system: Leptosphaeria nodorum; experiment: Glume Blotch of Wheat (LEPTNO), protectant spray test on wheat seedlings; conditions: wheat (cultivar Monon), sprayed to run off at 100 ppm, inoculated after 24 hours
[4] = system: Phytophthora infestans; conditions: tomatoes (cultivar Rutgers), sprayed to run off at 100 ppm, inoculated after 24 hours

SMILES	ERYSGT control of plant disease [1]	PUCCRT control of plant disease [2]	LEPTNO control of plant disease [3]	PHYTIN control of plant disease [4]
CCCCCOC(C)c1cnc(OCc2ccccc2C(=NOC)C(=O)NC)c(Cl)c1 (racemic) [Example 41]	++ (++ = 75-100% control of plant disease)	++ (++ = 75-100% control of plant disease)	++ (++ = 75-100% control of plant disease)	− (− = 0-24% control of plant disease)
CCC(O)(c1ccccc1)c1cnc(OCc2ccccc2C(=NOC)C(=O)NC)c(Cl)c1 (racemic) [Example 42]	++ (++ = 75-100% control of plant disease)	++ (++ = 75-100% control of plant disease)	++ (++ = 75-100% control of plant disease)	++ (++ = 75-100% control of plant disease)
CNC(=O)C(=NOC)c1ccccc1COc1ncc(C(O)C(C)C)cc1Cl (racemic) [Example 43]	++ (++ = 75-100% control of plant disease)	++ (++ = 75-100% control of plant disease)	+ (+ = 25-74% control of plant disease)	++ (++ = 75-100% control of plant disease)
CNC(=O)C(=NOC)c1ccccc1COc1ncc(C(C)OCc2ccc(C)cc2)cc1Cl (racemic) [Example 44]	++ (++ = 75-100% control of plant disease)	++ (++ = 75-100% control of plant disease)	++ (++ = 75-100% control of plant disease)	++ (++ = 75-100% control of plant disease)
CNC(=O)C(=NOC)c1ccccc1COc1ncc(C(OC(=O)N(C)C)c2ccccc2)cc1Cl (racemic) [Example 45]	++ (++ = 75-100% control of plant disease)	++ (++ = 75-100% control of plant disease)	++ (++ = 75-100% control of plant disease)	++ (++ = 75-100% control of plant disease)
CNC(=O)C(=NOC)c1ccccc1COc1ncc(C(OC(C)=O)c2ccc(F)cc2)cc1Cl (racemic) [Example 46]	++ (++ = 75-100% control of plant disease)	− (− = 0-24% control of plant disease)	++ (++ = 75-100% control of plant disease)	− (− = 0-24% control of plant disease)
CCCC(=O)OC(c1ccccc1)c1cnc(OCc2ccccc2C(=NOC)C(=O)NC)c(Cl)c1 (racemic) [Example 47]	++ (++ = 75-100% control of plant disease)	++ (++ = 75-100% control of plant disease)	++ (++ = 75-100% control of plant disease)	++ (++ = 75-100% control of plant disease)
CCC(=O)OC(c1ccc(F)cc1)c1cnc(OCc2ccccc2C(=NOC)C(=O)NC)c(Cl)c1 (racemic) [Example 48]	++ (++ = 75-100% control of plant disease)	++ (++ = 75-100% control of plant disease)	++ (++ = 75-100% control of plant disease)	++ (++ = 75-100% control of plant disease)
CNC(=O)C(=NOC)c1ccccc1COc1ncc(C(O)c2ccc3ccccc3c2)cc1Cl (racemic) [Example 49]	++ (++ = 75-100% control of plant disease)	++ (++ = 75-100% control of plant disease)	++ (++ = 75-100% control of plant disease)	++ (++ = 75-100% control of plant disease)
CCCC(=O)OC(c1ccc(F)cc1)c1cnc(OCc2ccccc2C(=NOC)C(=O)NC)c(Cl)c1 (racemic) [Example 50]	++ (++ = 75-100% control of plant disease)	++ (++ = 75-100% control of plant disease)	++ (++ = 75-100% control of plant disease)	++ (++ = 75-100% control of plant disease)
CNC(=O)C(=NOC)c1ccccc1COc1ncc(C(O)c2cccs2)cc1Cl (racemic) [Example 51]	++ (++ = 75-100% control of plant disease)	++ (++ = 75-100% control of plant disease)	++ (++ = 75-100% control of plant disease)	++ (++ = 75-100% control of plant disease)
CNC(=O)C(=NOC)c1ccccc1COc1ncc(C(C)OCc2ccccc2)cc1Cl (racemic) [Example 52]	++ (++ = 75-100% control of plant disease)	++ (++ = 75-100% control of plant disease)	++ (++ = 75-100% control of plant disease)	− (− = 0-24% control of plant disease)
CNC(=O)C(=NOC)c1ccccc1COc1ncc(C(C)(OC(C)=O)c2ccccc2)cc1Cl (racemic) [Example 53]	++ (++ = 75-100% control of plant disease)	++ (++ = 75-100% control of plant disease)	++ (++ = 75-100% control of plant disease)	++ (++ = 75-100% control of plant disease)
CNC(=O)C(=NOC)c1ccccc1COc1ncc(C(OC=O)c2ccccc2)cc1Cl (racemic) [Example 54]	++ (++ = 75-100% control of plant disease)	++ (++ = 75-100% control of plant disease)	++ (++ = 75-100% control of plant disease)	++ (++ = 75-100% control of plant disease)
CNC(=O)C(=NOC)c1ccccc1COc1ncc(C(OC(=O)OC(C)C)c2ccccc2)cc1Cl (racemic) [Example 56]	++ (++ = 75-100% control of plant disease)	++ (++ = 75-100% control of plant disease)	++ (++ = 75-100% control of plant disease)	++ (++ = 75-100% control of plant disease)
CNC(=O)C(=NOC)c1ccccc1COc1ncc(C(O)c2ccc3c(c2)OCO3)cc1Cl (racemic) [Example 58]	++ (++ = 75-100% control of plant disease)	++ (++ = 75-100% control of plant disease)	++ (++ = 75-100% control of plant disease)	++ (++ = 75-100% control of plant disease)
CNC(=O)C(=NOC)c1ccccc1COc1ncc(C(O)c2ccccc2C)cc1Cl (racemic) [Example 59]	++ (++ = 75-100% control of plant disease)	++ (++ = 75-100% control of plant disease)	++ (++ = 75-100% control of plant disease)	++ (++ = 75-100% control of plant disease)
CNC(=O)C(=NOC)c1ccccc1COc1ncc(C(OC(C)=O)c2ccc3c(c2)OCO3)cc1Cl (racemic) [Example 60]	++ (++ = 75-100% control of plant disease)	++ (++ = 75-100% control of plant disease)	++ (++ = 75-100% control of plant disease)	++ (++ = 75-100% control of plant disease)
CNC(=O)C(=NOC)c1ccccc1COc1ncc(C(OC(C)=O)c2ccccc2C)cc1Cl (racemic) [Example 61]	++ (++ = 75-100% control of plant disease)	++ (++ = 75-100% control of plant disease)	++ (++ = 75-100% control of plant disease)	++ (++ = 75-100% control of plant disease)
CNC(=O)C(=NOC)c1ccccc1COc1ncc(C(C)OCc2cccc(OC)c2)cc1Cl (racemic) [Example 62]	++ (++ = 75-100% control of plant disease)	++ (++ = 75-100% control of plant disease)	++ (++ = 75-100% control of plant disease)	− (− = 0-24% control of plant disease)
CCOCC(=O)OC(c1ccccc1)c1cnc(OCc2ccccc2C(=NOC)C(=O)NC)c(Cl)c1 (racemic) [Example 63]	++ (++ = 75-100% control of plant disease)	++ (++ = 75-100% control of plant disease)	++ (++ = 75-100% control of plant disease)	++ (++ = 75-100% control of plant disease)
CNC(=O)C(=NOC)c1ccccc1COc1ncc(C(OC(=O)COC)c2ccccc2)cc1Cl (racemic) [Example 64]	++ (++ = 75-100% control of plant disease)	++ (++ = 75-100% control of plant disease)	+ (+ = 25-74% control of plant disease)	++ (++ = 75-100% control of plant disease)
